{
  "source": "patent US20110020312A1",
  "about": "“METHODS FOR TREATMENT OF METABOLIC DISORDERS USING EPIMETABOLIC SHIFTERS, MULTIDIMENSIONAL INTRACELLULAR MOLECULES, OR ENVIRONMENTAL INFLUENCERS” (priority 2009, published 2011)",
  "key": {"PaCa2 cells": {"test_system": "PaCa2 cells", "assay": "Nexin assay for apoptosis (Annexin-V-PE/7-AAD flow cytometry), 24 h Q10", "format": "cell-based", "conditions": "50 μM Q10 and 100 μM Q10, 24 hours", "from_the_text": "The 7AAD dye will enter into cells with permeabilized cell membranes; primarily those cells that are in late apoptosis. Annexin-V-PE is a dye that binds to Phosphotidyl serine, which is exposed on the outer surface of the plasma membrane in early apoptotic cells. The Nexin reagent thus can be used to differentiate between different populations of apoptotic cells in a flow cytometer."}, "[1]": {"test_system": "Succinate Dehydrogenase (SDH) Subunit B", "assay": "Western blot, Succinate Dehydrogenase B in mitochondrial preparations", "format": "cell-based", "conditions": "for Succinate Dehydrogenase B Average Normalized Volume: NCIE0808 Mitopreps", "method": "The above blots were stripped by incubating for 30 minutes with methanol, followed by two 10 minute washes with TBS-T, then 30 minutes of incubation with Stripping buffer at 50 deg C., and followed by two washes with 100 ml or more of TBS-T for 30′ each. The blots were scanned in laser scanner to check for complete stripping. The blots were activated with methanol for 5 seconds, washed with water for 5 minutes, and TBST for 15 minutes. The blots were blocked for 1 hour with 5% blocking reagent in TBS-T at room temperature and then washed 3 times with TBS-T (1×-15′; 2×5′ each) and probed with the primary antibody for PKM2, SDHB or SDHC in 5% BSA in TBS-T by incubation overnight at 4 deg C. with gentle shaking. The primary antibody for SDHC (ABNOVA H00006391-MO2; antimouse) was at 1:500 dilution. The primary antibody for SDHB was from Abcam ab4714-200; antimouse; at 1:1000 dilution. The primary antibody for Pyruvate Kinase M2 (PKM2) was from Novus Biologicals H00005315-D0IP; antirabbit; at 1:500 dilution. After incubation with primary antibodies, the membranes were washed 3 times with TBS-T (1×-15′; 2×5′ each) and probed with the secondary antibody (SDHB & C antimouse; and PKM2 antirabbit; 1:10,000 dilution) for 1 h on the orbital tilting shaker at room temperature. After 1 h of incubation, the blots were washed 3 times with TBS-T (1×-15′; 2×5′ each) and incubated with ECF reagent for 5 minutes and then each blot scanned with 5100 Fuji Laser scanner at 25 uM resolution, 16 bit, green laser, at 400V and at 500 V."}, "HDFa cells": {"test_system": "HDFa cells", "assay": "Extracellular acidification rate (ECAR), SeaHorse XF analyzer", "format": "cell-based, human", "from_the_text": "Environmental influencers (e.g., MIMs or Epi-shifters) may also be identified by changes in cellular energetics. One example of the measurement of cellular energetics are the real-time measures of the consumption of molecular oxygen and/or the change in pH of the media of a cell culture. For example, the ability of a potential epi-shifter to modulate the metabolic state of a cell may be analyzed using, for example, the XF24 Analyzer (Seahorse, Inc.). This technology allows for real time detection of oxygen and pH changes in a monolayer of cells in order to evaluate the bioenergetics of a cell microenvironment. The XF24 Analyzer measures and compares the rates of oxygen consumption (OCR), which is a measure of aerobic metabolism, and extracellular acidification (ECAR), which is a measure of glycolysis, both key indicators of cellular energetics.\n(SeaHorse Biosciences Inc, North Billerica, Mass.).\nIn this experiment, the OCR and extracellular acidification rate (ECAR) in normal cells lines were obtained in the presence and absence of CoQ10 to determine baseline values. It was observed that in its native nutrient environment, the basal OCR rates in normal cells lines are different, and are usually a function of the physiological roles of the cells in the body.\nTable 51 below describes the ECAR values (mpH/min) in HDFa cells in the presence or absence of CoQ10 under normoxic and hypoxic conditions at 5.5 mM and 22 mM glucose."}, "SkBr-3 cells": {"test_system": "SkBr-3 cells", "assay": "Real-time PCR Apoptosis Array", "format": "cell-based, human", "method": "Changes in mRNA levels were evaluated using real-time PCR quantification to assess mRNA levels in pre-selected subsets containing […] pathway specific targets.\nFor the interpretation of mRNA results, the genes that were altered in their mRNA transcription by a two-fold level were identified and evaluated. The level of gene transcription to produce mRNA only provides a rough estimate of potential changes in the level of the expressed protein. The skilled artisan will appreciate that each mRNA may have different rates at which it is degraded or its translation inefficiently, thus resulting in differing amounts of protein.\nThe assay method of RT-PCR was utilized to provide a measure of mRNA level changes to a total of 84 apoptotic pathway related proteins."}, "[2]": {"conditions": "cited from earlier work"}},
  "data": [
    {"smiles": "COC1=C(OC)C(=O)C(C/C=C(\\C)CC/C=C(\\C)CC/C=C(\\C)CC/C=C(\\C)CC/C=C(\\C)CC/C=C(\\C)CC/C=C(\\C)CC/C=C(\\C)CC/C=C(\\C)CCC=C(C)C)=C(C)C1=O", "note": "[Q10, Coenzyme Q10]", "values": [
      {"measurement": "increase in both early and late apoptotic cells", "setting": "PaCa2 cells", "value": "5-10 % of gated cells"},
      {"measurement": "Succinate Dehydrogenase B Average Normalized Volume", "setting": "[1]; 50 uM, 6 h", "value": 1077},
      {"measurement": "Succinate Dehydrogenase B Average Normalized Volume", "setting": "[1]; 100 uM, 3 h", "value": 964},
      {"measurement": "Succinate Dehydrogenase B Average Normalized Volume", "setting": "[1]; 100 uM, 6 h", "value": 934},
      {"measurement": "SDH protein levels in the mitochondrion", "setting": "[1]; mitochondrial preparations of cancer cells", "value": "increase"},
      {"measurement": "ECAR", "setting": "HDFa cells; high glucose hypoxic conditions, to value of untreated normoxic conditions", "value": "lowering of elevated ECAR"},
      {"measurement": "ECAR values", "setting": "HDFa cells; normal cells, normoxic and hypoxic, 5.5 mM and 22 mM glucose", "value": "minimal influence"},
      {"measurement": "mRNA's being affected (Apoptosis array)", "setting": "SkBr-3 cells; Q10 (24 hr)", "value": "Bcl2, Bcl2L1, Bcl2L11, Birc6, Bax, Xiap, Hprt1, Apaf1, Ab11, Braf"},
      {"measurement": "Bcl-xl mRNA level", "setting": "SkBr-3 cells; one of the highest", "value": "significant up-regulation"},
      {"measurement": "solubility in water", "setting": "[2]", "value": "insoluble in water"}
    ]}
  ]
}
